Experimental data: PubChem BioAssay AID214 (DTP/NCI, 2004)
“And” between values parts separate entries of the source, which are not always exact repeats. Identical values can stand only once. Inconclusive results are not listed.

Test system: B6C3F1 mice, colon carcinoma 38 s.c., T/C
Assay: NCI In Vivo Anticancer Drug Screen. Data for tumor model Colon Carcinoma 38 (subcutaneous) in B6C3F1 mice
Conditions: endpoint: median tumor weight (est.), higher = larger tumour
Procedure: The antitumor activity of compounds was measured in mice bearing transplantable tumors. Survival or tumor size were measured and the results are expressed as the measurement made in the treated group (T) divided by the measurement made in the vehicle treated control group (C). The tumor model used in this assay is Colon Carcinoma 38 (subcutaneous) in B6C3F1 mice

[1] = dose: 100.0 mg/kg/injection, schedule: Q07DX002 (ip), vehicle: saline with Tween-80
[2] = dose: 200.0 mg/kg/injection, schedule: Q07DX002 (ip), vehicle: saline with Tween-80
[3] = dose: 400.0 mg/kg/injection, schedule: Q07DX002 (ip), vehicle: saline with Tween-80
[4] = dose: 25.0 mg/kg/injection, schedule: Q07DX002 (ip), vehicle: saline
[5] = dose: 50.0 mg/kg/injection, schedule: Q07DX002 (ip), vehicle: saline
[6] = dose: 100.0 mg/kg/injection, schedule: Q07DX002 (ip), vehicle: saline
[7] = dose: 200.0 mg/kg/injection, schedule: Q07DX002 (ip), vehicle: saline
[8] = dose: 12.5 mg/kg/injection, schedule: Q07DX002 (ip), vehicle: saline

## O=C1[C@H]2CCC[C@H]2[C@H]2CCC[C@@H]12
dose: 25.0 mg/kg/injection, schedule: Q07DX002 (ip), vehicle: saline with Tween-80
  T/C: 106 % of control and 109 % of control
dose: 50.0 mg/kg/injection, schedule: Q07DX002 (ip), vehicle: saline with Tween-80
  T/C: 95 % of control and 107 % of control
[1]
  T/C: 41 % of control
[2]
  T/C: 100 % of control and 116 % of control
[3]
  T/C: 104 % of control

## O=c1[nH]c(=O)n([C@H]2CCCO2)cc1F
dose: 80.0 mg/kg/injection, schedule: Q07DX003 (ip), vehicle: Klucel (hydroxypropylcellulose) (HPC)
  T/C: 51 % of control
dose: 160.0 mg/kg/injection, schedule: Q07DX003 (ip), vehicle: Klucel (hydroxypropylcellulose) (HPC)
  T/C: 85 % of control
dose: 320.0 mg/kg/injection, schedule: Q07DX003 (ip), vehicle: Klucel (hydroxypropylcellulose) (HPC)
  T/C: 80 % of control
dose: 640.0 mg/kg/injection, schedule: Q07DX003 (ip), vehicle: Klucel (hydroxypropylcellulose) (HPC)
  T/C: 25 % of control

## CCCCCCCCCCCCCCCCCCCCCC(=O)Nc1ccn(C2OC(CO)C(O)C2O)c(=O)n1 (centres undefined)
[1]
  T/C: 83 % of control
[2]
  T/C: 35 % of control

## O=C1NC(=O)/C(=C/C=C/c2ccccc2)S1
[2]
  T/C: 67 % of control
[3]
  T/C: 86 % of control
dose: 800.0 mg/kg/injection, schedule: Q07DX002 (ip), vehicle: saline with Tween-80
  T/C: 63 % of control

## CS(=O)(=O)OCCCCOS(C)(=O)=O
dose: 50.0 mg/kg/injection, schedule: Q01DX006 (ip), vehicle: saline with Tween-80
  T/C: 16 % of control

## Nc1nc(-c2ccccc2)c(Br)c(=O)[nH]1
[2]
  T/C: 115 % of control
[3]
  T/C: 87 % of control

## Oc1ccc(CCl)c2cccnc12
[4]
  T/C: 91 % of control
[5]
  T/C: 105 % of control
[6]
  T/C: 94 % of control
[7]
  T/C: 106 % of control

## O=C(c1cccnc1)c1cc(-c2ccccn2)c(=O)n2ccccc12
[7]
  T/C: 75 % of control
dose: 400.0 mg/kg/injection, schedule: Q07DX002 (ip), vehicle: saline
  T/C: 83 % of control
dose: 800.0 mg/kg/injection, schedule: Q07DX002 (ip), vehicle: saline
  T/C: 88 % of control

## CN(C)/N=N/c1nc[nH]c1C(N)=O
dose: 90.0 mg/kg/injection, schedule: Q01DX006 (ip), vehicle: carboxymethylcellulose (CMC)
  T/C: 47 % of control

## CCOC(=O)C(N)C[S][Sn]([CH3])([CH3])[Cl] (centres undefined)
dose: 6.25 mg/kg/injection, schedule: Q07DX002 (ip), vehicle: saline
  T/C: 123 % of control
[8]
  T/C: 61 % of control
[4]
  T/C: 90 % of control
[5]
  T/C: 110 % of control

## COCCCNC1=C(C#N)C(=O)NC(c2cccc([N+](=O)[O-])c2)S1 (centres undefined)
dose: 225.0 mg/kg/injection, schedule: Q07DX002 (ip), vehicle: saline with Tween-80
  T/C: 172 % of control
dose: 450.0 mg/kg/injection, schedule: Q07DX002 (ip), vehicle: saline with Tween-80
  T/C: 171 % of control
dose: 900.0 mg/kg/injection, schedule: Q07DX002 (ip), vehicle: saline with Tween-80
  T/C: 159 % of control

## CSc1ncnc2c1ncn2C1OC(CO)C(O)C1O (centres undefined)
dose: 25.0 mg/kg/injection, schedule: Q07DX002 (ip), vehicle: saline + alcohol
  T/C: 98 % of control
dose: 50.0 mg/kg/injection, schedule: Q07DX002 (ip), vehicle: saline + alcohol
  T/C: 51 % of control
dose: 100.0 mg/kg/injection, schedule: Q07DX002 (ip), vehicle: saline + alcohol
  T/C: 49 % of control
dose: 200.0 mg/kg/injection, schedule: Q07DX002 (ip), vehicle: saline + alcohol
  T/C: 32 % of control

## O=C(O)C(O)C(O)C1[O][Sb][O]C1C(=O)O (centres undefined)
[8]
  T/C: 76 % of control
[4]
  T/C: 84 % of control
[5]
  T/C: 123 % of control
[6]
  T/C: 107 % of control

## O=P1(N(CCCl)CCCl)NCCCO1 (centres undefined)
[4]
  T/C: 44 % of control
[5]
  T/C: 52 % of control
[6]
  T/C: 13 % of control
[7]
  T/C: 7 % of control
